From patent US9090600B2, “Fungicidal 4-substituted-3-{phenyl[(heterocyclylmethoxy)imino]methyl}-1,2,4-oxadizol-5(4H)-one derivatives” (BAYER INTELLECTUAL PROPERTY GMBH, priority 2011, dated 2015)
Marks after values point to notes of the source that are not given here.

Columns and labels:
[1] = test system: Plasmopara viticola; assay: Plasmopara test (grapevines)/preventive; format: in vivo; details: preventive spray, 10 ppm of active ingredient, evaluated 6 days after inoculation
Experimental: Solvent: 24.5 parts by weight of acetone • 24.5 parts by weight of dimethylacetamide
Emulsifier: 1 part by weight of alkylaryl polyglycol ether
To produce a suitable preparation of active compound, 1 part by weight of active compound is mixed with the stated amounts of solvent and emulsifier, and the concentrate is diluted with water to the desired concentration.
To test for preventive activity, young plants are sprayed with the preparation of active compound at the stated rate of application. After the spray coating has dried on, the plants are inoculated with an aqueous spore suspension of Plasmopara viticola and then remain for 1 day in an incubation cabinet at approximately 20° C. and a relative atmospheric humidity of 100%. The plant is subsequently placed for 4 days in a greenhouse at approximately 21° C. and a relative atmospheric humidity of approximately 90%. The plants are then misted and placed for 1 day in an incubation cabinet.
The test is evaluated 6 days after the inoculation. 0% means an efficacy which corresponds to that of the untreated control, while an efficacy of 100% means that no disease is observed.

[2] = test system: Phytophthora infestans; format: in vivo; details: tomato plants, spray, 500 ppm, grading 5 days after contamination
[3] = pH 2.7

Compound	Eff. % [1] [%]	Eff. % [2] [%]	LogP [3]
COc1cccc(OC(C)C(=O)Nc2nc(CO/N=C(/c3ccccc3)c3noc(=O)n3C)cs2)c1 (stereo not shown) [Example 50]	95	94	3.71 [a]
COc1cccc(OCC(=O)Nc2cccc(CO/N=C(/c3ccccc3)c3noc(=O)n3C)n2)c1 [Example 51]	91	–	3.73 [a]
Cn1c(/C(=N\OCc2cccc(NC(=O)c3ccccc3)n2)c2ccccc2)noc1=O [Example 54]	93	100	3.51 [a]
Cn1c(/C(=N\OCc2cccc(NC(=O)CCC(C)(C)C)n2)c2ccccc2)noc1=O [Example 59]	98	100	4.15 [a]
CC(OC(=O)Nc1cccc(CO/N=C(/c2ccccc2)c2noc(=O)n2C)n1)c1ccccc1 (stereo not shown) [Example 68]	90	100	4.23 [a]
Cc1cccc(OC(C)C(=O)Nc2nc(CO/N=C(/c3ccccc3)c3noc(=O)n3C)cs2)c1 (stereo not shown) [Example 80]	98	98	3.99 [a]
Cn1c(/C(=N\OCc2cccc(NC(=O)C3Cc4ccccc4CO3)n2)c2ccccc2)noc1=O (stereo not shown) [Example 85]	73	99	4.17 [a]
Cn1c(/C(=N\OCc2csc(NC(=O)COc3cccc(F)c3)n2)c2ccccc2)noc1=O [Example 100]	74	–	3.58 [a]
CC(C)CCC(=O)Nc1cccc(CO/N=C(/c2ccccc2)c2noc(=O)n2C)n1 [Example 102]	91	100	3.85 [a]
Cn1c(C(=NOCc2cccc(NCC3CCCCC3)n2)c2ccccc2)noc1=O [Example 116]	93	–	3.02 [a]
CCn1c(/C(=N\OCc2cccc(NC(=O)OC(C)(C)C)n2)c2ccccc2)noc1=O [Example 152]	70	95	4.26 [a]
Cn1c(/C(=N\OCc2cccc(NC(=O)CCC3(C)CC3)n2)c2ccccc2)noc1=O [Example 166]	95	99	3.87 [a]
Cn1c(/C(=N\OCc2csc(NC(=O)COC3CCCC3)n2)c2ccccc2)noc1=O [Example 195]	95	–	3.73 [a]
Cn1c(/C(=N\OCc2cccc(NC(=O)CC3CCCCC3)n2)c2ccccc2)noc1=O [Example 208]	91	100	4.26 [a]
CCCCOCC(=O)Nc1cccc(CO/N=C(/c2ccccc2)c2noc(=O)n2C)n1 [Example 240]	80	100	3.97 [a]
CCCCC(C)C(=O)Nc1cccc(CON=C(c2ccccc2)c2noc(=O)n2C)n1 (stereo not shown) [Example 244]	86	99	4.2 [a]
Cn1c(C(=NOCc2cccc(NC(=O)c3ccc(Cl)cc3)n2)c2ccccc2)noc1=O [Example 245]	93	–	4.01 [a]
Cn1c(/C(=N\OCc2cccc(NC(=O)c3cccc(I)c3)n2)c2ccccc2)noc1=O [Example 281]	97	97	4.31 [a]
CCCCC(CC)C(=O)Nc1cccc(CO/N=C(/c2ccccc2)c2noc(=O)n2C)n1 (stereo not shown) [Example 284]	79	95	4.49 [a]
CC1c2ccccc2COC1C(=O)Nc1cccc(CO/N=C(/c2ccccc2)c2noc(=O)n2C)n1 (stereo not shown) [Example 291]	77	100	4.35 [a]
Cc1ccc(OCC(=O)Nc2cccc(CO/N=C(/c3ccccc3)c3noc(=O)n3C)n2)cc1 [Example 296]	74	–	4.07 [a]
C#CCCCC(=O)Nc1cccc(CO/N=C(/c2ccccc2)c2noc(=O)n2C)n1 [Example 302]	92	100	3.17 [a]
Cn1c(/C(=N\OCc2cccc(NC(=O)C(F)(F)Oc3ccccc3)n2)c2ccccc2)noc1=O [Example 307]	98	–	4.08 [a]
Cc1ccc(OC(C)C(=O)Nc2nc(CO/N=C(/c3ccccc3)c3noc(=O)n3C)cs2)cc1 (stereo not shown) [Example 312]	95	94	4.02 [a]
CCCCC(C)(C)C(=O)Nc1cccc(CO/N=C(/c2ccccc2)c2noc(=O)n2C)n1 [Example 316]	84	–	4.63 [a]
COc1cccc(OCC(=O)Nc2nc(CO/N=C(/c3ccccc3)c3noc(=O)n3C)cs2)c1 [Example 318]	93	99	3.53 [a]
